In one data set the target is T1, glucocorticoid receptor (Homo sapiens, UniProt P04150).
T1 construct: containing 50-200 ug of A549 cell extract and 1.86 nM [^3H]-dexamethasone; host or cells: A549 human lung epithelial cells (sonicated cell extract)
T1 sequence (P04150 1-777): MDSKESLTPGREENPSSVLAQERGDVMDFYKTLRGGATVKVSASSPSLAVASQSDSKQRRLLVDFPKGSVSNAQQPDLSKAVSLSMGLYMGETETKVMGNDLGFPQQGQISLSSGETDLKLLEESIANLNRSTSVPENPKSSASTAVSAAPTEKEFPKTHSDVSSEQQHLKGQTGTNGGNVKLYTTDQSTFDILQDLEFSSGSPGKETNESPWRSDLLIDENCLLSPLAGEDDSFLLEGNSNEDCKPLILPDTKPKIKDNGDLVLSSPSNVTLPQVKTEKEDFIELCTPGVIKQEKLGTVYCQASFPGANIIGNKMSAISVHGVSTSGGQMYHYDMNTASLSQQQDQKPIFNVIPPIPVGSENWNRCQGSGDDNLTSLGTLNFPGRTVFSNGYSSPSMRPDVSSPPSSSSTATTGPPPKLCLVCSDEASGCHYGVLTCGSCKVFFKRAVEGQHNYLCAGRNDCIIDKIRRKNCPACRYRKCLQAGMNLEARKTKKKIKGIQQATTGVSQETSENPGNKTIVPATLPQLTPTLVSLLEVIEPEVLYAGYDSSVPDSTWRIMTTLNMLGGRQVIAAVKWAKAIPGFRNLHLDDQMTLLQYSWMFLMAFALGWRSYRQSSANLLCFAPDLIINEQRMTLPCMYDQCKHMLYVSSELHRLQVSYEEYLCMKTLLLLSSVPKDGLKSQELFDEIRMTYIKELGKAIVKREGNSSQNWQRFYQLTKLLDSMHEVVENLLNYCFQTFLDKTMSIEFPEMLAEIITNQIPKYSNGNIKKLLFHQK
Kind of data set: Glucocorticoid Receptor Binding Assay ([3H]-dexamethasone, A549 cell extract). The following applies: [3H]-dexamethasone binding, read-out: GR Ki. An outline of the steps: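 A549 cell extract (50–200 ug) incubated with 1.86 nM [3H]-dexamethasone and test compound for 16 h at 4 °C in Tris-HCl pH 7.2 buffer with glycerol and molybdate. Unbound radioligand removed by dextran-coated charcoal, then supernatant bound counts measured by scintillation.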

In another data set the target is T2, human MR (Homo sapiens, UniProt P08235).
T2 construct: The full length human MR gene is cloned from a human kidney or human brain cDNA library; His tag from the pAcHLT vector (own knowledge); made in house; host or cells: Sf9 insect cells (baculovirus, pAcHLT transfer vector)
T2 sequence (P08235 1-984): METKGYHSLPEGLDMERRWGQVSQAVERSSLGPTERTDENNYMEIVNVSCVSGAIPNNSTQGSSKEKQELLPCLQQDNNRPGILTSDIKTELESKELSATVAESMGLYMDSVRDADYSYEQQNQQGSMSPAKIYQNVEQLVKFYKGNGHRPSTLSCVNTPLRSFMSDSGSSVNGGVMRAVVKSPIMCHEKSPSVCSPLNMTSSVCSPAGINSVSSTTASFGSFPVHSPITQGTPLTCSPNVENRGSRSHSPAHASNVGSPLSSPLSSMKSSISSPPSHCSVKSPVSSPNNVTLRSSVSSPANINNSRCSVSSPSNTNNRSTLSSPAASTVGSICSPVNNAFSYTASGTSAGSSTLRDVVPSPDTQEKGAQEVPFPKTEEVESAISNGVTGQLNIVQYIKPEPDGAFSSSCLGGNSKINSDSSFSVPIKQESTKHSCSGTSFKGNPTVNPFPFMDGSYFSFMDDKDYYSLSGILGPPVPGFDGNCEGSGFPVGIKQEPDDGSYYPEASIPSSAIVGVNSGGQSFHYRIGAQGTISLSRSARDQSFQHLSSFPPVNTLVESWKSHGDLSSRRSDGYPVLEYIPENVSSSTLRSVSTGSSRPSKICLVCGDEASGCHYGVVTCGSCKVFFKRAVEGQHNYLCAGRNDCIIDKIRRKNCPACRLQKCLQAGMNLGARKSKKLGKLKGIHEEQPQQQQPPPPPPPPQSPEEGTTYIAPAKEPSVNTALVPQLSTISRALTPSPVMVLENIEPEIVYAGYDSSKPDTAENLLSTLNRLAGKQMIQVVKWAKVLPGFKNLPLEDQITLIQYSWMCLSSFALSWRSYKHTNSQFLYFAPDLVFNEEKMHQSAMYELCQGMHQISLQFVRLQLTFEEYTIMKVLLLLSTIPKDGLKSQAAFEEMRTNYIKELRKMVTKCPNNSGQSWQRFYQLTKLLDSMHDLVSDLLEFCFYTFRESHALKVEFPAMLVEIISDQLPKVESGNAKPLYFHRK
Kind of data set: Mineralocorticoid Receptor Binding Assay ([3H]-aldosterone). The following applies: [3H]-aldosterone binding, human MR expressed in Sf9 cells; read-out: MR Ki. An outline of the steps:
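Lysate supernatant of Sf9 cells expressing full-length human MR (20-25 μg protein) was incubated with 0.5 nM [3H]-aldosterone and test compound in molybdate/Tris/phosphate/glycerol buffer, pH 7.5, ~16 h at 4 °C. Bound ligand was filtered and counted by scintillation; IC50 is the concentration halving [3H]-aldosterone binding.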

This note sets out measurements from patent US20060063759A1, “Tricyclic steroid hormone nuclear receptor modulators” (priority 2002, published 2006).

Structures are written as SMILES. A value given as a limit tells only on which side of the number the result lay.

Regarding `CNS(=O)(=O)c1cccc(C=C2c3ccccc3CCc3ccccc32)c1` [Example 1, 3-(10,11-Dihydro-dibenzo[a,d]cyclohepten-5-ylidenemethyl)-N-methyl-benzenesulfonamide], the melting point (usually the temperature of the solid-liquid transition) came out at 153.9 °C. Also, the Ki (in general, a dissociation constant, usually derived from enzyme kinetics or from competition with a known ligand) on glucocorticoid receptor was less than 0.5 µM. Moreover, the Ki on human MR was less than 0.5 µM.

Regarding `CNS(=O)(=O)c1cc(C)ccc1C=C1c2ccccc2CCc2ccccc21` [Example 2, 2-(10,11-Dihydro-dibenzo[a,d]cyclohepten-5-ylidenemethyl)-5,N-dimethyl-benzenesulfonamide], the melting point amounted to 174.9 °C. For the same compound, the Ki on glucocorticoid receptor was less than 0.5 µM. The Ki on human MR was less than 0.5 µM.

`CNS(=O)(=O)c1ccccc1C=C1c2ccccc2CCc2ccccc21` [Example 4, 2-(10,11-Dihydro-dibenzo[a,d]cyclohepten-5-ylidenemethyl)-N-methyl-benzenesulfonamide] displayed a melting point of 149 °C. Further, the inhibition constant (Ki) at glucocorticoid receptor is less than 1 µM. Also, at human MR, the inhibition constant (Ki) was less than 0.5 µM.

On to `CCCNS(=O)(=O)c1ccccc1C=C1c2ccccc2CCc2ccccc21` [Example 6, 2-(10,11-Dihydro-benzo[a,d]cyclohepten-5-ylidenemethyl)-N-propyl-benzenesulfonamide], for which the melting point stood at 155.6 °C. Moreover, the Ki at glucocorticoid receptor was less than 0.5 µM. In addition, on human MR, the Ki was less than 0.5 µM.

Take `CN(C)S(=O)(=O)c1cccc(C=C2c3ccccc3CCc3ccccc32)c1` [Example 25, 3-(10,11-Dihydro-dibenzo[a,d]cyclohepten-5-ylidenemethyl)-N,N-dimethyl-benzenesulfonamide]: the melting point turned out to be 167.3 °C.

Regarding `CNS(=O)(=O)c1ccc(C=C2c3ccccc3CCc3ccccc32)cc1` [Example 27, 4-(10,11-Dihydro-dibenzo[a,d]cyclohepten-5-ylidenemethyl)-N-methyl-benzenesulfonamide], the melting point came out at 189.7 °C. Also, the Ki at glucocorticoid receptor was less than 1 µM. Moreover, the Ki at human MR is less than 0.5 µM.

In turn, `Brc1cccc(C=C2c3ccccc3CCc3ccccc32)c1` [Example 28, 5-(3-Bromo-benzylidene)-10,11-dihydro-5H-dibenzo-[a,d]cycloheptene] showed a melting point of 104.7 °C.

`Brc1ccccc1C=C1c2ccccc2CCc2ccccc21` [Example 29, 5-(2-Bromo-benzylidene)-10,11-dihydro-5H-dibenzo-[a,d]cycloheptene] displayed a melting point of 122.7 °C.

`COc1ccccc1C=C1c2ccccc2CCc2ccccc21` [Example 31, 5-(2-Methoxy-benzylidene)-10,11-dihydro-5H-dibenzo-[a,d]cycloheptene] came in with a melting point of 129.3 °C. Moreover, the inhibition constant (Ki) on glucocorticoid receptor was less than 10 µM. Also, the Ki at human MR is less than 0.5 µM.

In turn, `COc1cccc(C=C2c3ccccc3CCc3ccccc32)c1` [Example 32, 5-(3-Methoxy-benzylidene)-10,11-dibydro-5H-dibenzo-[a,d]cycloheptene] gave a melting point of 83 °C. For the same compound, the Ki on glucocorticoid receptor is less than 1 µM. Further, at human MR, the Ki was less than 0.5 µM.

`COc1ccc(C=C2c3ccccc3CCc3ccccc32)cc1` [Example 33, 5-(4-Methoxy-benzylidene)-10,11-dihydro-5H-dibenzo-[a,d]cycloheptene]: the melting point came to 116.8 °C.

On to `COc1ccc(C=C2c3ccccc3CCc3ccccc32)cc1Br` [Example 34, 5-(3-Bromo-4-methoxy-benzylidene)-10,11-dihydro-5H-dibenzo[a,d]cycloheptene], for which the melting point came out at 140.7 °C.

For the compound `COc1cccc(C=C2c3ccccc3CCc3ccccc32)c1OC` [Example 35], the melting point amounted to 130.6 °C. Further, at glucocorticoid receptor, the Ki is less than 0.5 µM. Further, the Ki at human MR was less than 0.5 µM.

Consider `COc1ccc(C=C2c3ccccc3CCc3ccccc32)cc1OC` [Example 36, 5-(3,4-Dimethoxy-benzylidene)-10,11-dihydro-5H-dibenzo[a,d]cycloheptene], for which the melting point amounted to 102.8 °C.

`Oc1ccc(C=C2c3ccccc3CCc3ccccc32)cc1` [Example 60, b-(10,11-Dihydro-dibenzo[a,d]cyclohepten-5-ylidenemethyl)-phenol] gave a melting point of 56.9 °C. Moreover, at glucocorticoid receptor, the Ki is less than 10 µM. Moreover, the Ki at human MR is less than 0.5 µM.

Take `Oc1ccc(C=C2c3ccccc3CCc3ccccc32)cc1O` [Example 62, 4-(10,11-Dihydro-dibenzo[a,d]cyclohepten-5-ylidenemethyl)-benzene-1,2-diol]: the melting point amounted to 138 °C. Besides, the Ki on glucocorticoid receptor was less than 10 µM. Besides, the Ki at human MR is less than 0.5 µM.

Compound `Nc1cc(C=C2c3ccccc3CCc3ccccc32)ccc1O` [Example 63, 2-Amino-4-(10,11-dihydro-dibenzo[a,d]cyclohepten-5-ylidenemethyl)-phenol] showed a melting point of 158.8 °C.

The compound `FC(F)Oc1ccccc1C=C1c2ccccc2CCc2ccccc21` [Example 66, 5-(2-Difluoromethoxy-benzylidene)-10,11-dihydro-5H-dibenzo[a,d]cycloheptene] had a melting point of 81.1 °C.

`FC(F)Oc1ccc(C=C2c3ccccc3CCc3ccccc32)cc1` [Example 67, 5-(4-Difluoromethoxy-benzylidene)-10,11-dihydro-5H-dibenzo[a,d]cycloheptene]: the melting point amounted to 65.8 °C.

With `COc1ccc(C=C2c3ccccc3CCc3ccccc32)cc1N` [Example 89, 5-(10,11-Dihydro-dibenzo[a,d]cyclohepten-5-ylidenemethyl)-2-methoxy-phenylamine], the melting point was found to be 62.7 °C.

Consider `COc1ccc(C=C2c3ccccc3CCc3ccccc32)cc1NS(C)(=O)=O` [Example 97, N-[5-(10,11-Dihydro-dibenzo[a,d]cyclohepten-5-ylidenemethyl)-2-methoxy-phenyl]-methanesulfonamide], for which the melting point stood at 192.1 °C.

For the compound `CC(=O)Nc1ccccc1C=C1c2ccccc2CCc2ccccc21` [Example 115, N-[2-(10,11-Dihydro-dibenzo[a,d]cyclohepten-5-ylidenemethyl)-phenyl]-acetamide], the melting point was 189.7 °C.

Compound `CN(c1cccc(C=C2c3ccccc3CCc3ccccc32)c1)S(C)(=O)=O` [Example 124, N-[3-(10,11-Dihydro-dibenzo[a,d]cyclohepten-5-ylidenemethyl)-phenyl]-N-methyl-methanesulfonamide] had a melting point of 124.2 °C.

Compound `Cc1nc2c(o1)CCc1ccccc1/C2=C/c1cccc(NS(C)(=O)=O)c1` [Example 247, N-[3-(2-Methyl-9,10-dihydro-1-oxa-3-aza-benzo[f]azulen-4-ylidenemethyl)-phenyl]-methanesulfonamide] had a melting point of 184.6 °C.
